Laboratory results: patent US5756491A, “Antiviral cobalt-organic compounds” (priority 1991, dated 1998)
Converted amounts (≈) assume the structure as drawn. “And” between values parts separate entries of the source, which are not always exact repeats. Equal entries are not always repeated.

Legend:
[1] = tested on: HFF cells; test: Cell proliferation assay; format: cell-based, human; details: rapidly growing cells
Method: Twenty-four hours prior to assay, HFF cells are seeded in 6-well plates at a concentration of 2.5×10^4 cells per well in MEM containing 10% FBS. On the day of the assay, drugs are diluted serially in MEM containing 10% FBS at increments of 1:5 covering a range from 100 μg/ml to 0.03 μg/ml. […] The media from the wells is then aspirated and 2 ml of each drug concentration is then added to each well. The cells are then incubated in a Co2 incubator at 37° C. for 72 h. At the end of this time, the media-drug solution is removed and the cells washed. […] The cell-media mixture is then pipetted up and down vigorously to break up the cell suspension and 0.2 ml of the mixture is added to 9.8 ml of Isoton III and counted using a Coulter Counter. Each sample is counted three times with three replicate wells per sample.

[2] = tested on: HCMV; test: HCMV plaque assay; format: cell-based; details: Human betaherpesvirus 5, HCMV
Method: The procedure is essentially the same as for HSV analysis with the following minor changes. The agarose used for the initial overlay and the two subsequent overlays is 0.8% rather than 1%. The assay is incubated for 14 days with the additional 1 ml overlays being applied on days four and eight.
The procedure for the liquid overlay plaque assay is similar to that using the agarose overlay. The procedure for adding the virus is the same as for the regular plaque assay. The drugs are made up in a concentration to be used in MEM with 2% FBS. The drugs are not made up at 2×concentration as in previous assays but are made up at the desired concentration. For HSV-1 and HSV-2 assays, an antibody preparation obtained from Baxter Health Care Corporation is diluted 1:500 and added to the media that the drug is diluted in. For CMV and VZV, no antibody in the overlay is utilized. For the CMV assay, additional medium without new drug is added on day six and allowed to incubate for a total of 11 days. For VZV, additional media is added on day five and incubated for a total of eight days. At the end of the incubation period for all of the assays, the medium is removed, the cells washed and then stained with 0.1% crystal violet solution for ten minutes. […]
I. EC50 values were also determined for each of the viruses tested for known antiviral agents. […]

[3] = tested on: HSV-1 McKrae Strain; test: Direct virucidal efficacy against HSV-1 on HFF monolayers; format: cell-based; details: for virucidal efficacy (HSV-1 titer): Experiment 1 (Table 2), 24 h PI; for effective virucidal concentration IC50 / effective virucidal concentration IC90: HSV-1
Method: HSV-1 McKrae Strain was diluted to a final concentration of 10^5 PFU/ml in minimal essential medium (MEM). Hereinafter, this dilution is referred to as the HSV-1 Suspension for convenience.
(§1) With sufficient stirring, all the compounds completely dissolved.
Each of the drug solutions were mixed with the HSV-1 Suspension in a 1:1 ratio. The drug and HSV-1 Suspension mixture was incubated at 37° C. for thirty minutes with agitation every ten minutes. After the incubation, fifty microliter aliquots were overlaid onto triplicate confluent human foreskin fibroblast (HFF) cell monolayers. The inoculum was absorbed for thirty minutes and then a medium containing the appropriate drug concentration in MEM was added to the monolayers to a final volume of 0.5 milliliters per culture-well. The monolayers were incubated at 37° C. The developing HSV-1 Cytopathology was monitored daily for two days by inverted light microscopy. Titers were calculated by multiple regression analysis. All data is presented as the average PFU/ml reduction at 24 and/or 48 hours after inoculation (PI).
1. HSV-1 inoculated, non-compound treated HFF monolayers were included as "positive controls"; and […]

[4] = tested on: human foreskin fibroblast (HFF) cell monolayers; test: Toxicity effects controls: sham-inoculated compound-treated HFF monolayers; format: cell-based; details: Experiment 1 (Table 1); also: key: +: toxic; -: no toxicity; ±: mild toxicity; T: toxicity effects interfered with CPE rating
Text: as §1
In the tables, the symbols have the meaning indicated: […]

[5] = tested on: HSV-2 (MS strain); test: Vaginal virus replication in primary genital HSV-2 infection of guinea pigs; format: in vivo, Female Hartley strain guinea pigs
Method: (§2) A series of studies were carried out to compare the activity of inventive antiviral Compounds 23, 76, and 82 in a primary genital HSV-2 infection of guinea pigs. The experiments were placebo-controlled and uninfected animals were treated with three concentrations of each of the preparations to assess skin irritation and determine the maximum tolerated dose.
(§3) The MS strain of HSV-2 was utilized for the experimental animal infection. Female Hartley strain guinea pigs (Charles River Breeding Laboratories, Kingston, N.Y.) weighing 250-300 g were inoculated intravaginally with 1.4×10^5 plaque forming units of HSV-2 one hour after being swabbed for the removal of vaginal secretions.
(§4) Groups of 10 infected guinea pigs were treated topically as stated above with 20 mg/ml (the maximum tolerated dose) of each compound beginning 6 h or 24 h after inoculation with HSV-2.
To determine the effect of treatment on vaginal virus replication, swabs of vaginal secretions were obtained on days 1, 3, 5, 7, and 10 after HSV-2 inoculation, placed in a tube containing 2.0 ml of media, vortexed and frozen at -70° until titrated for HSV-2. When all samples were collected, they were thawed, diluted serially and HSV-2 titers were determined using rabbit kidney cells in a microtiter CPE assay. Mean peak virus titers and areas under the virus titer-day curves were calculated and analyzed.
(§5) The number of animals infected over the number inoculated, lesion score-day areas and virus titer-day areas under the curve, peak lesion scores and peak virus titers between untreated and placebo-treated or placebo-treatedand drug-treated animals were compared using the Mann-Whitney U rank sum test. A p-value of 0.05 or less was considered significant.

[6] = tested on: HSV-2 (MS strain); test: External genital lesion development in primary genital HSV-2 infection of guinea pigs; format: in vivo, Female Hartley strain guinea pigs; parameters: key to Lesion Score-Day Area Under Curve: area under 0-5+ lesion score vs day curve (score-days); key to Mean Peak Lesion Score: lesion severity on 0-5+ scale
Method: as §2, §3, §4
To determine the effect of therapy on the development and spread of external genital lesions, lesion severity was scored on a 0-5+ scale through the primary infection (21 days). Mean peak lesion scores and the areas under the lesion score-day curves were calculated and analyzed.
as §5

Structure (SMILES): O=c1[nH]c(=O)n([C@@H]2O[C@H](CO)[C@@H](O)[C@@H]2F)cc1I [FIAU, 2'-fluoro-5-iodo-arabinosyl-uracil]
- toxicity IC50, cell proliferation [1]: 8.4 MCG/ML and 3.3 MCG/ML

Structure (SMILES): Nc1nc2c(ncn2COC(CO)CO)c(=O)[nH]1 [DHPG]
- EC50 [2]: 0.9 µg/mL (≈ 3.53 µM)

Structure (SMILES): CC([O-])=CC(C)=NCCN=C(C)C=C(C)[O-].[Br-].[Co+3].c1ccncc1.c1ccncc1 [Compound 76]
- virucidal efficacy (HSV-1 titer) ([3]; 0.001 mg/ml): 10^5 PFU/ml
- virucidal efficacy (HSV-1 titer) ([3]; .01 mg/ml): 10^3 PFU/ml
- effective virucidal concentration IC50 ([3]; Experiment 1 (Table 3)): 0.01 mg/mL
- effective virucidal concentration IC90 ([3]; Experiment 1 (Table 3)): 0.1 to 1 mg/mL
- effective virucidal concentration IC50 ([3]; Experiment 2 (Table 6)): 0.01 mg/mL
- effective virucidal concentration IC90 ([3]; Experiment 2 (Table 6)): 0.1 to 1 mg/mL
- toxicity effects ([4]; 24 h PI, 0.001 mg/ml): -
- toxicity effects ([4]; 24 h PI, 0.01 mg/ml): -
- toxicity effects ([4]; 24 h PI, 0.1 mg/ml): -
- toxicity effects ([4]; 48 h PI, 0.001 mg/ml): -
- toxicity effects ([4]; 48 h PI, 0.01 mg/ml): -
- toxicity effects ([4]; 48 h PI, 0.1 mg/ml): -
- toxicity effects ([4]; 48 h PI, 1 mg/ml): +
- toxicity effects ([4]; 48 h PI, 10 mg/ml): +
- # Infected/# Inoculated ([5]; 20 mg/ml, started +6h): 5/10
- Mean Peak Virus Titer ([5]; 20 mg/ml, started +6h): 1.0
- P-Value for Mean Peak Virus Titer ([5]; 20 mg/ml, started +6h): < 0.001
- Virus Titer-Day Area Under Curve ([5]; 20 mg/ml, started +6h): 2.9
- # Infected/# Inoculated ([5]; 20 mg/ml, started +24h): 10/10
- Mean Peak Virus Titer ([5]; 20 mg/ml, started +24h): 4.3
- Virus Titer-Day Area Under Curve ([5]; 20 mg/ml, started +24h): 17.7
- infectivity rate ([5]; treatment beginning 6 h after infection): 50%
- Lesion Score-Day Area Under Curve ([6]; 20 mg/ml, started +6h): 4.4
- Mean Peak Lesion Score ([6]; 20 mg/ml, started +6h): 0.4
- P-Value for Mean Peak Lesion Score ([6]; 20 mg/ml, started +6h): < 0.001
- Lesion Score-Day Area Under Curve ([6]; 20 mg/ml, started +24h): 37.2
- Mean Peak Lesion Score ([6]; 20 mg/ml, started +24h): 3.3
- lesion AUC difference vs untreated control animals ([6]; started +24 h, vs untreated control): not significant
